The values that follow are results of earlier work, collected in patent US11957723B2, “Methods and uses of microbiome compositions, components, or metabolites for treating neurodegenerative diseases” (MarvelBiome, Inc., priority 2021, dated 2024).

The data set deals with ALS patients.

As to `Nc1nc2ccc(OC(F)(F)F)cc2s1` [Riluzole], the life span expansion entry (ALS patients in the early stages) is listed as “about a three-month life span expansion”. Besides, where the note is “ALS patients in the late stages”, the therapeutic benefit result is “no therapeutic benefit”.
